Data reported in patent US11691986B2, “PTEFB inhibiting macrocyclic compounds” (Bayer Aktiengesellschaft, priority 2017, dated 2023).

Experiments:
HeLa cells = assay: Proliferation assay, HeLa (crystal violet); type: cell-based; settings: Homo sapiens, 96 h, 4 days, read-out: Inhibition of HeLa cell proliferation IC50
Protocol: (§1) Cultivated tumour cells (HeLa, human cervical tumour cells, ATCC CCL-2; NCI-H460, human non-small cell lung carcinoma cells, ATCC HTB-177; DU 145, hormone-independent human prostate carcinoma cells, ATCC HTB-81; HeLa-MaTu-ADR, multidrug-resistant human cervical carcinoma cells, EPO-GmbH Berlin; Caco-2, human colorectal carcinoma cells, ATCC HTB-37; B16F10, mouse melanoma cells, ATCC CRL-6475) were plated at a density of 5,000 cells/well (DU145, HeLa-MaTu-ADR), 3,000 cells/well (NCI-H460, HeLa), 1,500 cells/well (Caco-2), or 1,000 cells/well (B16F10) in a 96-well multititer plate in 200 μL of their respective growth medium supplemented 10% fetal calf serum. After 24 hours, the cells of one plate (zero-point plate) were stained with crystal violet (see below), while the medium of the other plates was supplemented with the test substances in various concentrations (0 μM, as well as in the range of 0.0001-10 μM; the final concentration of the solvent dimethyl sulfoxide was adjusted to 0.1%) using a Hewlett-Packard HP D300 Digital Dispenser. The cells were incubated for 4 days in the presence of test substances. Cell proliferation was determined by staining the cells with crystal violet: the cells were fixed by adding 20 μl/measuring point of an 11% glutaric aldehyde solution for 15 minutes at room temperature. After three washing cycles of the fixed cells with water, the plates were dried at room temperature. The cells were stained by adding 100 μl/measuring point of a 0.1% crystal violet solution (pH 3.0). After three washing cycles of the stained cells with water, the plates were dried at room temperature. The dye was dissolved by adding 100 μl/measuring point of a 10% acetic acid solution. The extinction was determined by photometry at a wavelength of 595 nm. The change of cell number, in percent, was calculated by normalization of the measured values to the extinction values of the zero-point plate (=0%) and the extinction of the untreated (0 Wm) cells (=100%). The IC50 values (inhibitory concentration at 50% of maximal effect) were determined by means of a 4 parameter fit.

HeLa-MaTu-ADR cells = assay: Proliferation assay, HeLa-MaTu-ADR (crystal violet); type: cell-based; settings: Homo sapiens, 96 h, 4 days, read-out: Inhibition of HeLa-MaTu-ADR cell proliferation IC50
Protocol: as §1

Caco-2 cells = assay: Proliferation assay, Caco-2 (crystal violet); type: cell-based; settings: Homo sapiens, 96 h; Caco-2, 4 days; read-out: Inhibition of Caco-2 cell proliferation IC50
Protocol: as §1

A2780 cells = assay: Proliferation assay, A2780 (Cell Titre-Glo); type: cell-based; settings: Homo sapiens; A2780, 72-hour exposure; read-out: Inhibition of A2780 cell proliferation IC50
Protocol: (§2) A2780 human ovarian carcinoma cells (ECACC #93112519) and non-adherent MOLM-13 human acute myeloid leukemia cells (DSMZ ACC 554) were seeded at a density of 3,000 cell/well (A2780) or 5,000 cells/well (MOLM-13) in a 96-well multititer plate in 150 μL of growth medium supplemented 10% fetal calf serum. After 24 hours, cell viability of one plate (zero-point plate) was determined with the Cell Titre-Glo Luminescent Cell Viability Assay (Promega), while the medium of the other plates was supplemented with the test substances in various concentrations (0 μM, as well as in the range of 0.0001-10 μM; the final concentration of the solvent dimethyl sulfoxide was adjusted to 0.1%) using a Hewlett-Packard HP D300 Digital Dispenser. Cell viability was assessed after 72-hour exposure with the Cell Titre-Glo Luminescent Cell Viability Assay (Promega). IC50 values (inhibitory concentration at 50% of maximal effect) were determined by means of a 4 parameter fit on measurement data which were normalized to vehicle (DMSO) treated cells (=100%) and measurement readings taken immediately before compound exposure (=0%).

MOLM-13 cells = assay: Proliferation assay, MOLM-13 (Cell Titre-Glo); type: cell-based; settings: Homo sapiens; MOLM-13, 72-hour exposure; read-out: Inhibition of MOLM-13 cell proliferation IC50
Protocol: as §2

[1] = target: T1, human PTEFb (CDK9/Cyclin T1) (Homo sapiens, UniProt P50750); assay: Surface Plasmon Resonance PTEFb; type: binding; settings: SPR, 37° C.; for residence time: 1/koff, read-out: Target residence time; for residence time / koff: * = arithmetic mean; for Kd: * = arithmetic mean of more than one value, read-out: Equilibrium dissociation constant KD; for koff: < = below what is resolvable, read-out: Dissociation rate constant koff
T1 construct: purchased ProQinase, Freiburg, Germany
T1 sequence (P50750 whole entry): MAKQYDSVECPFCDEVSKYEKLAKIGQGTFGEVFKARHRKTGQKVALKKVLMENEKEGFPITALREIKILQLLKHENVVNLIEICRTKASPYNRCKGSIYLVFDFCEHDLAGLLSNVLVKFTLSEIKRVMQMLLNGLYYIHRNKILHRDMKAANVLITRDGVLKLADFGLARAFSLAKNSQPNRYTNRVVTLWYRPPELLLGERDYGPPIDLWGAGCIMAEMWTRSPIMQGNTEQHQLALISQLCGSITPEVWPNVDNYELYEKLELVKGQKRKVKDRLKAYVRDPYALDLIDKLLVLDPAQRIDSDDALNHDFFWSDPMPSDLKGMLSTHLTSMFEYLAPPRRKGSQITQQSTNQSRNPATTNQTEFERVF
T1 sequence (O60563 whole entry partner): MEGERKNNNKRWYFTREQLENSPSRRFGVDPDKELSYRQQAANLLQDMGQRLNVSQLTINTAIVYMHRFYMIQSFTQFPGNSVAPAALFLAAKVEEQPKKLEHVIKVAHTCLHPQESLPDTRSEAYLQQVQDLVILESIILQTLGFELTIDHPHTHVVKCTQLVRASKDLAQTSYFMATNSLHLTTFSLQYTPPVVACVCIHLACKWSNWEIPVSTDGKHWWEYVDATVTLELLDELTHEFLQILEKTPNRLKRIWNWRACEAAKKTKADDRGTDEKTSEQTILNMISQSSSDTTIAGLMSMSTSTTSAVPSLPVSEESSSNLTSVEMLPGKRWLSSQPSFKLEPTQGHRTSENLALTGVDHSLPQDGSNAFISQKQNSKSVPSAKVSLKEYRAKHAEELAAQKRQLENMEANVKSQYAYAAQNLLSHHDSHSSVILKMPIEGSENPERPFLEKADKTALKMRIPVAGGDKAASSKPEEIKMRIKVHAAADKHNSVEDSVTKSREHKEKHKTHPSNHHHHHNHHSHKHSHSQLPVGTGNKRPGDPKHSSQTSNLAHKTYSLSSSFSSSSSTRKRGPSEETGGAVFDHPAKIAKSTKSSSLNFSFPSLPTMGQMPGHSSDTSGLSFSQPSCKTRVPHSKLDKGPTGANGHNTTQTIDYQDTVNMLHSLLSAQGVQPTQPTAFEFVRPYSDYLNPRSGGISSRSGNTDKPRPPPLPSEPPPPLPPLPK
Text: 8. Surface Plasmon Resonance PTEFb
The ability of the compounds according to the invention to bind human PTEFb may be determined using surface plasmon resonance (SPR). KD values and koff values may be measured using a Biacore® T200 instrument (GE Healthcare, Uppsala, Sweden).
For SPR measurements, recombinant human PTEFb (CDK9/Cyclin T1 recombinant human active protein kinase purchased from ProQinase, Freiburg, Germany) is immobilized using standard amine coupling (Johnsson B et al, Anal Biochem. 1991 Nov. 1; 198(2):268-77). Briefly, carboxymethylated dextran biosensor chips (CM7, GE Healthcare) are activated with N-ethyl-N′-(3-dimethylaminopropyl)-carbodiimide hydrochloride (EDC) and N-hydroxysuccinimide (NHS) according to the supplier's instructions. Human PTEFb is diluted in 1×HBS-EP+(GE Healthcare) and injected on the activated chip surface. Subsequently, a 1:1 solution of 1 M ethanolamine-HCl (GE Healthcare) and 1×HBS-EP is injected to block unreacted groups, resulting in approximately 4000 response units (RU) of immobilized protein. A reference surface is generated by treatment with NHS-EDC and ethanolamine-HCl. Compounds are dissolved in 100% dimethylsulfoxide (DMSO, Sigma-Aldrich, Germany) to a concentration of 10 mM and subsequently diluted in running buffer (1×HBS-EP+pH 7.4 [generated from HBS-EP+Buffer 10×(GE Healthcare): 0.1 M HEPES, 1.5 M NaCl, 30 mM EDTA and 0.5% v/v Surfactant P20], 1% v/v DMSO). For kinetic measurements, serial dilutions of compound (0.078 nM up to 25 nM) are injected over immobilized protein. Binding kinetics is measured at 37° C. with a flow rate of 100 μl/min in running buffer. Compound concentrations are injected for 70 s followed by a dissociation time of 1100 s. The resulting sensorgrams are double-referenced against the reference surface as well as against blank injections.
The double-referenced sensorgrams are fit to a simple reversible Langmuir 1:1 reaction mechanism as implemented in the Biacore® T200 evaluation software 2.0 (GE Healthcare). In cases were full compound dissociation has not occurred at the end of the dissociation phase, the Rmax parameter (response at saturation) is fit as local variable. In all other cases, Rmax is fit as global variable.

| IC50 (HeLa cells) [nM] | IC50 (HeLa-MaTu-ADR cells) [nM] | IC50 (Caco-2 cells) [nM] | IC50 (A2780 cells) [nM] | IC50 (MOLM-13 cells) [nM] | residence time [1] [min] | Kd [1] [nM] | koff [1] [s⁻¹] | SMILES |
| --- | --- | --- | --- | --- | --- | --- | --- | --- |
| 40 | 46 | 70 | 13 | 7.1 | – | – | – | CC(C)(C)OC(=O)N=S(C)(=O)Cc1cc2cc(c1)OCCCCNc1cc(ccc1F)-c1nc(ncc1F)N2 (racemic) [Example 1, (rac)-tert-butyl [{[3,20-difluoro-13-oxa-5,7,18,25-tetraazatetracyclo[17.3.1.1^2,6.1^8,12]pentacosa-1(23),2(25),3,5,8(24),9,11,19,21-nonaen-10-yl]methyl}(methyl)oxido-λ^6-sulfanylidene]carbamate] |
| – | – | – | 7.7 | – | 33 | 0.28 | 0.0005 | CC1CCCNc2cc(ccc2F)-c2nc(ncc2F)Nc2cc(CS(C)(=O)=O)cc(c2)O1 (racemic) [Example 8, (rac)-3,20-difluoro-14-methyl-10-[(methylsulfonyl)methyl]-13-oxa-5,7,18,25-tetraazatetracyclo[17.3.1.1^2,6.1^8,12]pentacosa-1(23),2(25),3,5,8(24),9,11,19,21-nonaene] |
| 15 | 23 | 20 | 5.9 | 5.8 | 13 | 0.38 | 0.0012 | CS(=N)(=O)Cc1cc2cc(c1)OCCCNc1cc(ccc1F)-c1nc(ncc1F)N2 (racemic) [Example 3, (rac)-3,19-difluoro-10-[(S-methylsulfonimidoyl)methyl]-13-oxa-5,7,17,24-tetraazatetracyclo[16.3.1.1^2,6.1^8,12]tetracosa-1(22),2(24),3,5,8(23),9,11,18,20-nonaene] |
| 4.4 | 5.3 | 8.4 | 1.2 | 2 | > 208 | 0.074 | < 8e-05 | CS(=N)(=O)Cc1cc2cc(c1)OCCCCNc1cc(ccc1F)-c1nc(ncc1F)N2 (racemic) [Example 2, (rac)-3,20-difluoro-10-[(S-methylsulfonimidoyl)methyl]-13-oxa-5,7,18,25-tetraazatetracyclo[17.3.1.1^2,6.1^8,12]pentacosa-1(23),2(25),3,5,8(24),9,11,19,21-nonaene] |
